Experimental findings from patent publication US20230322846A9, “NEUROACTIVE STEROIDS AND THEIR METHODS OF USE” (SAGE THERAPEUTICS, INC., priority 2018, published 2023) are described below.

Molecules are shown by their SMILES.

Broadly, the IC50 is the concentration at which inhibition is half-maximal.

In the experiment the target is [35S]-TBPS binding, rat brain cortical membranes. The experiment in a line: Steroid inhibition of [35S]-TBPS binding. To be noted: 3 nM [35S]-TBPS, in the presence of 5 mM GABA. In a few lines: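 In the presence of […], compounds (DMSO 0.5% final) competed with 3 nM [35S]-TBPS for Sprague-Dawley rat cortical membranes, pH 7.4 phosphate buffer, 90 min, room temperature. Filtration and scintillation counting; specific binding defined by […]; IC50 and maximal inhibition fitted per experiment, averaged as mean ± SEM.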

In the case of `CCC[C@@]1(O)CC[C@H]2[C@@H](CC[C@@H]3[C@@H]2CC[C@]2(C)[C@@H]([C@@H](C)Cn4cc(C#N)cn4)CC[C@@H]32)C1` [Example 349, 1-((R)-2-((3R,5S,8R,9R,10S,13S,14S,17R)-3-hydroxy-13-methyl-3-propylhexadecahydro-1H-cyclopenta[a]phenanthren-17-yl)propyl)-1H-pyrazole-4-carbonitrile], the IC50 is at least 10000 nM.

As to `C[C@H](Nc1ccccc1)[C@H]1CC[C@H]2[C@@H]3CC[C@@H]4C[C@](C)(O)CC[C@@H]4[C@H]3CC[C@]12C` [Example 26, (3R,5R,8R,9R,10S,13S,14S,17S)-3,13-dimethyl-17-((S)-1-(phenylamino)ethyl)hexadecahydro-1H-cyclopenta[a]phenanthren-3-ol], the IC50 was 1000 to 10000 nM. The value for `C[C@@]1(O)CC[C@H]2[C@H](CC[C@@H]3[C@@H]2CC[C@]2(C)[C@@H]([C@H](Nc4ccccc4)C(F)(F)F)CC[C@@H]32)C1` [Example 505] was 100 to 1000 nM; that for `CCC[C@@]1(O)CC[C@H]2[C@H](CC[C@@H]3[C@@H]2CC[C@]2(C)[C@@H]([C@H](C)Cc4ccc(C#N)nc4)CC[C@@H]32)C1` [Example 400, 5-((R)-2-((3R,5R,8R,9R,10S,13R,14S,17R)-3-hydroxy-13-methyl-3-propylhexadecahydro-1H-cyclopenta[a]phenanthren-17-yl)propyl)picolinonitrile] was below 100 nM; that for `CC[C@@]1(O)CC[C@H]2[C@@H](CC[C@@H]3[C@@H]2CC[C@]2(C)[C@@H]([C@H](C)Cn4nnc(C)n4)CC[C@@H]32)C1` [Example 334, (3R,5S,8R,9R,10S,13S,14S,17R)-3-ethyl-13-methyl-17-((S)-1-(5-methyl-2H-tetrazol-2-yl)propan-2-yl)hexadecahydro-1H-cyclopenta[a]phenanthren-3-ol] was at least 10000 nM. The value for `C[C@@]1(O)CC[C@H]2[C@H](CC[C@@H]3[C@@H]2CC[C@]2(C)[C@@H](CN4C(=O)CCC[C@@H]4c4ccccc4)CC[C@@H]32)C1` [Example 13, (R)-1-(((3R,5R,8R,9R,10S,13S,14S,17S)-3-hydroxy-3,13-dimethylhexadecahydro-1H-cyclopenta[a]phenanthren-17-yl)methyl)-6-phenylpiperidin-2-one] was below 100 nM; that for `C[C@@H]([C@H]1CC[C@H]2[C@@H]3CC[C@@H]4C[C@](C)(O)CC[C@@H]4[C@H]3CC[C@]12C)N(C)C(=O)c1ccccc1` [Example 19, N—((S)-1-((3R,5R,8R,9R,10S,13S,14S,17S)-3-hydroxy-3,13-dimethylhexadecahydro-1H-cyclopenta[a]phenanthren-17-yl)ethyl)-N-methylbenzamide] was 1000 to 10000 nM. Next, `CCC[C@@]1(O)CC[C@@]2(COC)[C@H](CC[C@H]3[C@@H]4CC[C@H]([C@H](C)Cn5nnnc5C)[C@@]4(C)CC[C@@H]32)C1` [Example 322, (3R,5R,8S,9S,10R,13S,14S,17R)-10-(methoxymethyl)-13-methyl-17-((S)-1-(5-methyl-1H-tetrazol-1-yl)propan-2-yl)-3-propylhexadecahydro-1H-cyclopenta[a]phenanthren-3-ol]: below 100 nM; `CCOC[C@@]1(O)CC[C@@]2(C)[C@H](CC[C@@H]3[C@@H]2CC[C@]2(C)[C@@H]([C@@H](C)N[C@H](C)c4ccccc4)CC[C@@H]32)C1` [Example 207]: 1000 to 10000 nM. In the case of `CCC[C@@]1(O)CC[C@H]2[C@H](CC[C@@H]3[C@@H]2CC[C@@]2(C)[C@H]3CC[C@]2(O)[C@H](C)Cn2cc(C#N)cn2)C1` [Example 348, 1-((R)-2-((3R,5R,8R,9R,10S,13S,14S,17S)-3,17-dihydroxy-13-methyl-3-propylhexadecahydro-1H-cyclopenta[a]phenanthren-17-yl)propyl)-1H-pyrazole-4-carbonitrile], the IC50 was in the range of 1000 to 10000 nM. On to `COC[C@@]1(O)CC[C@H]2[C@@H](CC[C@@H]3[C@@H]2CC[C@]2(C)[C@@H](CCn4nnc(C)n4)CC[C@@H]32)C1` [Example 295, (3R,5S,8R,9R,10S,13R,14S,17R)-3-(methoxymethyl)-13-methyl-17-(2-(5-methyl-2H-tetrazol-2-yl)ethyl)hexadecahydro-1H-cyclopenta[a]phenanthren-3-ol], for which the IC50 is below 100 nM. Consider `COC[C@@]1(O)CC[C@H]2[C@H](CC[C@@H]3[C@@H]2CC[C@]2(C)[C@@H]([C@@H](C)N4Cc5cc(C#N)ccc5C4=O)CC[C@@H]32)C1` [Example 44, 2-((R)-1-((3R,5R,8R,9R,10S,13S,14S,17S)-3-hydroxy-3-(methoxymethyl)-13-methylhexadecahydro-1H-cyclopenta[a]phenanthren-17-yl)ethyl)-1-oxoisoindoline-5-carbonitrile], for which the concentration for half-maximal inhibition (IC50) is below 100 nM.

Consider `CC(C)[C@@]1(O)CC[C@H]2[C@H](CC[C@@H]3[C@@H]2CC[C@]2(C)[C@@H]([C@@H](C)Cn4cc(C#N)cn4)CC[C@@H]32)C1` [Example 343, 1-((R)-2-((3R,5R,8R,9R,10S,13S,14S,17R)-3-hydroxy-3-isopropyl-13-methylhexadecahydro-1H-cyclopenta[a]phenanthren-17-yl)propyl)-1H-pyrazole-4-carbonitrile], for which the IC50 fell in the range of 100 to 1000 nM. Next, `C[C@H](Nc1ccc(C#N)cc1)[C@H]1CC[C@H]2[C@@H]3CC[C@@H]4C[C@](C)(O)CC[C@@H]4[C@H]3CC[C@]12C` [Example 205]: 1000 to 10000 nM; `COc1ccc(C(=O)N[C@H](C)[C@H]2CC[C@H]3[C@@H]4CC[C@@H]5C[C@](C)(O)CC[C@@H]5[C@H]4CC[C@]23C)cc1` [Example 106]: 100 to 1000 nM; `COC[C@@]1(O)CC[C@H]2[C@@H](CC[C@@H]3[C@@H]2CC[C@]2(C)[C@@H](CCn4nccn4)CC[C@@H]32)C1` [Example 297, (3R,5S,8R,9R,10S,13R,14S,17R)-17-(2-(2H-1,2,3-triazol-2-yl)ethyl)-3-(methoxymethyl)-13-methylhexadecahydro-1H-cyclopenta[a]phenanthren-3-ol]: below 100 nM. The value for `C[C@H](NC(=O)c1ccccc1)[C@H]1CC[C@H]2[C@@H]3CC[C@@H]4C[C@](C)(O)CC[C@@H]4[C@H]3CC[C@]12C` [Example 23, N—((S)-1-((3R,5R,8R,9R,10S,13S,14S,17S)-3-hydroxy-3,13-dimethylhexadecahydro-1H-cyclopenta[a]phenanthren-17-yl)ethyl)benzamide] was 1000 to 10000 nM. Regarding `COc1cccc(C(=O)N[C@H](C)[C@H]2CC[C@H]3[C@@H]4CC[C@@H]5C[C@](C)(O)CC[C@@H]5[C@H]4CC[C@]23C)c1` [Example 104], the IC50 is below 100 nM.

For the molecule `C[C@@]1(O)CC[C@H]2[C@H](CC[C@@H]3[C@@H]2CC[C@]2(C)[C@@H](CC(=O)Nc4ccccc4)CC[C@@H]32)C1` [Example 76, 2-((3R,5R,8R,9R,10S,13R,14S,17R)-3-hydroxy-3,13-dimethylhexadecahydro-1H-cyclopenta[a]phenanthren-17-yl)-N-phenylacetamide], the IC50 fell in the range of 100 to 1000 nM.
